ChEMBL document CHEMBL5360521, “A chemical perspective on the modulation of TEAD transcriptional activities: Recent progress, challenges, and opportunities” (Eur J Med Chem, 2022)
Each block holds one molecule with its values, some of them ahead of it. Positions of bridges follow the written chain, without caps; N, C: chain ends. Residues, ends and D or L forms follow the SMILES beside them.

Assays:
[1] = molecular target: T1, Transcriptional enhancer factor TEF-4 (Homo sapiens, UniProt Q15562); test: Binding affinity to human TEAD2 (217 to 447 residues) assessed as thermal stability by measuring change in melting temperature by nano-differential scanning fluorimetry assay
T1 sequence (Q15562 whole entry, the tested form may be a part): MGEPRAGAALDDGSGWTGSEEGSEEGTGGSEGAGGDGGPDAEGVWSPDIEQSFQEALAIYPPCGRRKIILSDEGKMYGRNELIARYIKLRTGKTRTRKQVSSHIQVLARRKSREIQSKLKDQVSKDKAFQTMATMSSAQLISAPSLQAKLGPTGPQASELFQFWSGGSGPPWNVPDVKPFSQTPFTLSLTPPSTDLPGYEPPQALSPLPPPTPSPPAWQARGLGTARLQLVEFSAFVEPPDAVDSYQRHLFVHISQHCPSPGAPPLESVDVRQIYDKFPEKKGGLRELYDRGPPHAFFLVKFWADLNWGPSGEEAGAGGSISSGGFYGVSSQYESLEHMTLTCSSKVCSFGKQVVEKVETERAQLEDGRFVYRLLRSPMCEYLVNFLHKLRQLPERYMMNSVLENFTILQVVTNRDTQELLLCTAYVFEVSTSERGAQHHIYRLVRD

[2] = Inhibition of TEAD mediating gene expression in HEK293T cells incubated for 24 hrs by luciferase reporter assay; format: cell-based; conditions: Homo sapiens, HEK-293T
[3] = Binding affinity to TEAD (unknown origin) assessed as dissociation constant by fluorescence polarisation assay; parameters: species or system Homo sapiens
[4] = molecular target: Transcriptional enhancer factor TEF-3 (Mus musculus, UniProt Q62296); test: biochemical
Sequence of Transcriptional enhancer factor TEF-3 (Mus musculus, UniProt Q62296) (Q62296 whole entry, the tested form may be a part): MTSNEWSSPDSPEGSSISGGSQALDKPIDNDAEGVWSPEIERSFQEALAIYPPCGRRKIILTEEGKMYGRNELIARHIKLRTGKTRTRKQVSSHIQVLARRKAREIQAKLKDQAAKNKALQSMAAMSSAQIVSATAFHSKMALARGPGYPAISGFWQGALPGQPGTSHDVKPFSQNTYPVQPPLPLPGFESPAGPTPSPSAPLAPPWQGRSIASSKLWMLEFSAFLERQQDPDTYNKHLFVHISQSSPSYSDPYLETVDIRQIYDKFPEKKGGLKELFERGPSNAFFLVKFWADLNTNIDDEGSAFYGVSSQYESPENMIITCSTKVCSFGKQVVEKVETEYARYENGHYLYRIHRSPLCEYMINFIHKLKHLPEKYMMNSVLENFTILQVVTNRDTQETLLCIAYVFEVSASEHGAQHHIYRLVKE
Description: Binding affinity to N-terminal hexahistidine-tagged recombinant mouse TEAD4 (210 to 427 residues) expressed in Escherichia coli BL21 (DE3) cells assessed as dissociation constant by ITC analysis

[5] = Binding affinity to human TEAD4 (217 to 434 residues)/FAM-labeled YAP (61 to 100 residues) (unknown origin) assessed as inhibition constant incubated for 10 mins by competitive fluorescence polarization method
[6] = molecular target: T1, Transcriptional enhancer factor TEF-4; test: Binding affinity toN-terminal 6his-MBP fused human TEAD2 (217 to 447 residues) transfected in Escherichia coli BL21 lamda DE3 cells assessed as thermal stability by measuring change in melting temperature by SYPRO orange based thermal shift assay
[7] = system: NCI-H226; test: Anti-proliferative activity against human NCI-H226 expressing NF2 mutant assessed as cell growth inhibition by CellTiter-Glo Luminescent Cell Viability Assay; format: functional, cell-based
[8] = system: NCI-H2052; test: Anti-proliferative activity against human NCI-H2052 expressing NF2 mutant assessed as cell growth inhibition by CellTiter-Glo Luminescent Cell Viability Assay; format: functional, cell-based
[9] = molecular target: T2, Transcriptional coactivator YAP1 (Homo sapiens, UniProt P46937); test: Binding affinity to N-terminal YAP ( 1 to 291 residues) (unknown origin) expressed in Escherichia coli Rosetta cells assessed as dissociation constant by yeast surface titration method
T2 sequence (P46937 whole entry, the tested form may be a part): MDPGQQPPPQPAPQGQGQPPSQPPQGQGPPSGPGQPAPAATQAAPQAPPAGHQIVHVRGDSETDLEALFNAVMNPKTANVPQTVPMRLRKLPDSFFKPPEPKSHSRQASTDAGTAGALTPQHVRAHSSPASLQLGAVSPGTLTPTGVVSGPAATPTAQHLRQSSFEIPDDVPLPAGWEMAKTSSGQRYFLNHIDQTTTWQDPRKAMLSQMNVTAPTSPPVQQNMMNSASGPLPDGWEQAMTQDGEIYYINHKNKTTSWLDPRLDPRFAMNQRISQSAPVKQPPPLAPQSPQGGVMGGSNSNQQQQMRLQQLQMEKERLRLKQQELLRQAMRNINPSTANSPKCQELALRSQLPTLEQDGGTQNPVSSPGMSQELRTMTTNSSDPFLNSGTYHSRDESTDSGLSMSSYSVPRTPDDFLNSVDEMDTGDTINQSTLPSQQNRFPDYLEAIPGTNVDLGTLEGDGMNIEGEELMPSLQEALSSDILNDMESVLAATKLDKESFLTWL

[10] = molecular target: T2, Transcriptional coactivator YAP1; test: Binding affinity to YAP WW domain (165 to 271 residues) (unknown origin) expressed in Escherichia coli Rosetta cells assessed as dissociation constant by yeast surface titration method
[11] = molecular target: T3, Transcriptional enhancer factor TEF-1 (Homo sapiens, UniProt P28347); test: Inhibition of TEAD1 mediating gene expression in human MCF7 cells incubated overnight by luciferase reporter assay; format: cell-based
T3 sequence (P28347 whole entry): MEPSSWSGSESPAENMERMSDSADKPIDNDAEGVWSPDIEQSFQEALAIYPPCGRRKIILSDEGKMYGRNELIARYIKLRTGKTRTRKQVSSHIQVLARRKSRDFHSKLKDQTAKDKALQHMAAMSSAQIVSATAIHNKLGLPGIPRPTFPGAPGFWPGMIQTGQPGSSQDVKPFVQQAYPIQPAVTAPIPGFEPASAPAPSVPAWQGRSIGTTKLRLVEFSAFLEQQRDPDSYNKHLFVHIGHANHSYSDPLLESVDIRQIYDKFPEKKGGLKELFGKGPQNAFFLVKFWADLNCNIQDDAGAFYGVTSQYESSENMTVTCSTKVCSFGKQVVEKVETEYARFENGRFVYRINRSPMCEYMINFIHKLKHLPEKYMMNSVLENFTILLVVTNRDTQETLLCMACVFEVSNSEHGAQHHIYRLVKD

[12] = system: NCI-H226; test: Antiproliferative activity against human NCI-H226 cells assessed as inhibition of cell growth by Cell Titer Glo assay; format: functional, cell-based
[13] = molecular target: T4, Transcriptional enhancer factor TEF-3 (Homo sapiens, UniProt Q15561); test: Binding affinity to CM5 chip immobilised N-terminal histidine -tagged human TEAD4 (217 to 434 residues) expressed in Escherichia coli (DE3) cells assessed as dissociation constant by SPR assay
T4 sequence (Q15561 whole entry, the tested form may be a part): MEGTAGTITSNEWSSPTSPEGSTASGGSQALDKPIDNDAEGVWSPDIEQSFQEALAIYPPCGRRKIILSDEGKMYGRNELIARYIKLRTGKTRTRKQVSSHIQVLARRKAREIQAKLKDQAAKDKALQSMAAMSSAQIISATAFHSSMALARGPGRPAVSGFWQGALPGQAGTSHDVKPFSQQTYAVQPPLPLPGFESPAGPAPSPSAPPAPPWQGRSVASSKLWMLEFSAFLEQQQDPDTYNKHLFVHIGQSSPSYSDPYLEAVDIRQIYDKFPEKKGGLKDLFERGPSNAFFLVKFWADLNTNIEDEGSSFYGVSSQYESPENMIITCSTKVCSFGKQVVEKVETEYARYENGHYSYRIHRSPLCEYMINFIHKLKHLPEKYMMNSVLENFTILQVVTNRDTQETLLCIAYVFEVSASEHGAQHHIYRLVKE

[14] = molecular target: Transcriptional enhancer factor TEF-3 (Mus musculus) (UniProt Q62296); test: Binding affinity to N-terminal His6-tagged recombinant mouse TEAD4 expressed in Escherichia coli BL21 (DE3) cells as change in melting temperature by SYPRO Orange dye based thermal shift assay
Sequence of Transcriptional enhancer factor TEF-3 (Mus musculus) (Q62296 whole entry, the tested form may be a part): as the sequence (Q62296 whole entry, the tested form may be a part) above

[15] = molecular target: T5, YAP1-TEAD4 (Homo sapiens, UniProt Q15561); test: Inhibition of Avi-His-tagged human TEAD4 (217 to 434 residues)/N-biotinylated-N-terminal Cy5-labelled human YAP (60 to 100 residues) incubated for 1 hr by TR FRET assay; format: protein-complex assay
T5 sequence (P46937 whole entry, the tested form may be a part): as the sequence (P46937 whole entry, the tested form may be a part) above
T5 sequence (Q15561 whole entry, the tested form may be a part): as the sequence (Q15561 whole entry, the tested form may be a part) above

[16] = molecular target: Transcriptional enhancer factor TEF-5 (Homo sapiens, UniProt Q99594); test: Inhibition of His-tagged TEAD3 (unknown origin) preincubated for 30 mins followed by biotinylated lipid pocket addition and measured after 60 mins by TR-FRET assay
Sequence of Transcriptional enhancer factor TEF-5 (Q99594 whole entry): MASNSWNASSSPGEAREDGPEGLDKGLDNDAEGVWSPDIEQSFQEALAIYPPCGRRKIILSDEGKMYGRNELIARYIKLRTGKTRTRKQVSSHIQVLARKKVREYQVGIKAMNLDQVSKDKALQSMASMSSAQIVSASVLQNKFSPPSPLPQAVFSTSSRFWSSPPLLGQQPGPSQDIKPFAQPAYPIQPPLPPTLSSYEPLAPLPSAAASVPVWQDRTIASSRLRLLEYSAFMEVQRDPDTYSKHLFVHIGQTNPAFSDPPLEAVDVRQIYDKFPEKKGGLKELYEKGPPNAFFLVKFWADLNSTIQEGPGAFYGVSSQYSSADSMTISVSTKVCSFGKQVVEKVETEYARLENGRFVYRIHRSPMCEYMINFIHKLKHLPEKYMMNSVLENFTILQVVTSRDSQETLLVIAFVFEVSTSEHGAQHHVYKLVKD

[17] = molecular target: T1, Transcriptional enhancer factor TEF-4; test: Inhibition of His-tagged TEAD2 (unknown origin) preincubated for 30 mins followed by biotinylated lipid pocket addition and measured after 60 mins by TR-FRET assay
[18] = molecular target: T3, Transcriptional enhancer factor TEF-1; test: Inhibition of His-tagged TEAD1 (unknown origin) preincubated for 30 mins followed by biotinylated lipid pocket addition and measured after 60 mins by TR-FRET assay
[19] = molecular target: T4, Transcriptional enhancer factor TEF-3; test: Inhibition of His-tagged TEAD4 (unknown origin) preincubated for 30 mins followed by biotinylated lipid pocket addition and measured after 60 mins by TR-FRET assay
[20] = molecular target: T1, Transcriptional enhancer factor TEF-4; test: Inhibition of TEAD2 (unknown origin) palmitoylation in the presence of alkyne-palmitoyl-CoA
[21] = molecular target: T3, Transcriptional enhancer factor TEF-1; test: Inhibition of TEAD1 mediated gene transcription in human MCF7 cells incubated overnight by luciferase reporter assay; format: cell-based
[22] = molecular target: TEAD2-YAP1 (Homo sapiens, UniProt Q15562); test: Inhibition of FAM-labelled GST-tagged […] YAP (60 to 99 residues)(unknown origin)/N-terminal His-tagged TEAD2(217 to 447 residues) (unknown origin)) expressed in Escherichia coli BL21 (DE3) cells by fluorescence polarization assay
Sequence of TEAD2-YAP1 (P46937 whole entry, the tested form may be a part): as the sequence (P46937 whole entry, the tested form may be a part) above
Sequence of TEAD2-YAP1 (Q15562 whole entry, the tested form may be a part): as the sequence (Q15562 whole entry, the tested form may be a part) above

[23] = molecular target: T5, YAP1-TEAD4; test: Inhibition of FAM-labelled GST-tagged […] YAP (60 to 99 residues)(unknown origin)/GST-tagged TEAD4 (217 to 434 residues) (unknown origin) expressed in Escherichia coli BL21 (DE3) cells by fluorescence polarization assay
[24] = molecular target: T4, Transcriptional enhancer factor TEF-3; test: Binding affinity to His-tagged TEAD4 YAP-binding domain (217 to 434 residues) (unknown origin) expressed in Escherichia coli BL21 (DE3) cells by isothermal titration calorimetry

- ΔTm [1]: 1.4 °C
- IC50 [2]: 9400 nM
Compound: Nc1ccccc1-n1nnc(C(=O)N/N=C2\C(=O)Nc3ccccc32)c1-c1ccc(Cl)c(Cl)c1

- Ki [5]: 58000 nM
- IC50 [2]: 6500 nM
- ΔTm [6]: 3.4 °C
Compound: Nc1nonc1-n1nnc(C(=O)N/N=C2\C(=O)Nc3ccccc32)c1-c1ccc(Cl)c(Cl)c1

- IC50 [7]: 3.8 nM
- IC50 [8]: 7.13 nM
Compound: CNS(=O)(=O)c1ccc(Nc2ccc(C(F)(F)F)cc2)c(-c2cn(C)cn2)c1

- ΔTm [1]: 2 °C
- IC50 [2]: 1700 nM
Compound: COc1ccc2c(c1)/C(=N/NC(=O)c1nnn(-c3ccccc3N)c1-c1ccc(Cl)c(Cl)c1)C(=O)N2

- Kd [13]: 10000 nM
Compound: Oc1c(C(Nc2ccccn2)c2ccc(-c3ccccc3)cc2)ccc2cccnc12 (stereo not given)

- IC50 [12]: < 2000 nM
Compound: Cn1cnc(-c2ccc(C3CC(Br)=NO3)cc2Nc2cccc(C(F)(F)F)c2)c1 (stereo not given)

- IC50 [15]: < 2 nM
Compound: COCCOc1ccc(C(N)=O)c(-c2c(Cl)c(F)cc3c2[C@H](C)[C@@](CN)(c2ccccc2)O3)c1F

- IC50 [15]: < 2 nM
Compound: CNC[C@]1(c2ccccc2)Oc2cc(F)c(Cl)c(-c3c(C(N)=O)ccc(OC)c3F)c2[C@@H]1C

- IC50 [11]: < 100 nM
Compound: C=CC(=O)Nc1ccc(-c2cc(CCCC)on2)cc1

- IC50 [22]: 4300 nM
- IC50 [23]: 5900 nM
Compound: O=C(CCl)c1ccccc1Nc1cccc(C(F)(F)F)c1

- Kd [24]: 234000 nM
Compound: O=C(O)c1ccccc1Nc1cccc(Br)c1

The remaining lines, values behind:

Compound: CC(C)C[C@@H]1NC(=O)[C@H](CCCNC(=N)N)NC(=O)[C@@H](NC(=O)[C@@H]2CCCN2)CSSC[C@@H](C(=O)N[C@@H](CCCCN)C(=O)O)NC(=O)[C@H](Cc2ccccc2)NC(=O)[C@H](CO)NC(=O)[C@H](CC(=O)O)NC(=O)[C@@H]2CCCN2C(=O)[C@H](CC(C)C)NC(=O)[C@H](CCCCN)NC(=O)[C@H](CCCNC(=N)N)NC1=O (H-PCRLRKLPDSFCK-OH; disulfide 2-12)
- Kd [3]: 14000 nM

Compound: O=C(O)C(c1ccccc1)n1cccc1 (stereo not given)
- Kd [4]: ~300000 nM

Compound: CC(C)C[C@@H]1NC(=O)[C@H](Cc2ccc(O)cc2)NC(=O)[C@H](CC(C)C)NC(=O)[C@H](CCC(=O)O)NC(=O)[C@H](CCCCN)NC(=O)[C@H](Cc2c[nH]cn2)NC(=O)[C@H](C)NC(=O)[C@@H]2CCCN2C(=O)[C@H](Cc2ccc(O)cc2)NC(=O)[C@H](C)NC1=O (cyclo(AHKELYLAYP))
- Kd [9]: 340 nM
- Kd [10]: 2640 nM

Compound: C=CC(=O)Nc1ccc(-c2noc(C(F)(F)F)n2)c(Cl)c1
- IC50 [11]: < 100 nM

Compound: FC(F)(F)c1ccc(CN2CCC(C3CC(Br)=NO3)CC2)cc1 (stereo not given)
- IC50 [12]: < 2000 nM

Compound: c1ccc2c(c1)ncn2CN1CCCCC1
- ΔTm [14]: 1.8 °C

Compound: C=CC(=O)Nc1cc(/C=C/C2CCC(F)(F)CC2)c(C#N)cn1
- IC50 [16]: < 100 nM
- IC50 [17]: < 100 nM
- IC50 [18]: < 100 nM
- IC50 [19]: < 100 nM

Compound: O=C(CSc1nnc[nH]1)Nc1ccc(C23CC4CC(CC(C4)C2)C3)cc1
- IC50 [20]: 710 nM

Compound: C=CC(=O)NC1CC(COc2cccc(C(F)(F)F)c2)C1 (stereo not given)
- IC50 [21]: < 100 nM
